One data set has as its system FASN. The data set can be described thus: Immunoblot of FASN protein levels. In kind it is cell-based. The settings on record: MDA-MB-231BR cells, 24 h. As to the method:
Immunoblotting protocols have been previously described. Briefly, cell lysates from one to five x 10^6 cells were prepared in radioimmune precipitation assay buffer (150 mM NaCl, 1% NP40, 0.5% DOC, 50 mM Tris HCL at pH 8, 0.1% SDS, 10% glycerol, 5 mM EDTA, 20 mM NaF, and 1 mM Na3VO4) supplemented with 1 μg/mL each of pepstatin, leupeptin, aprotinin, and 200 μg/mL PMSF. Lysates were cleared by centrifugation at 16,000 x g for 15 min at 4°C and analyzed by SDS-PAGE and autoradiography with chemiluminescence. Proteins were analyzed by immunoblotting using primary antibodies indicated above.
On the technique in general: A western blot detects proteins with antibodies after separation by electrophoresis.

Data set [1] has as its system brain slices not containing tumors. The data set can be described thus: MTS cell viability of brain slices without tumor. More on the design: species or system mice. The settings on record: 100 μM, day 6, MTS assay. As to the method: (§1) Ex vivo brain slice tumor model was performed as previously described ([Ciraku et al., 2021]). Briefly, Nu/Nu athymic 4–6 week old mice Charles River Laboratories (Wilmington, MA, United States) were immobilized using the Just for Mice Stereotaxic Frame (Harvard Apparatus, Holliston, MA, United States) and injected intracranially with 5uL of 20,000 cells/uL solution of luciferase tagged MDA-MB-231BR or 4T1BR cells. Tumor growth was monitored via bioluminescence imaging on the IVIS system (Perkin Elmer, Waltman, MA, United States). Organotypic hippocampal cultures were prepared as described previously ([Ciraku et al., 2021]). Briefly, adult mice (4–6 weeks) or mice after 12 days following intracranial injection were decapitated and their brains rapidly removed into ice-cold (4°C) sucrose-aCSF composed of the following (in mM): 280 sucrose, 5 KCl, 2 MgCl2, 1 CaCl2, 20 glucose, 10 HEPES, 5 Na^+-ascorbate, 3 thiourea, 2 Na^+-pyruvate; pH = 7.3. […] Tumor growth was monitored via bioluminescence imaging on the IVIS 200 system (Perkin Elmer), and results were analyzed using Living Image software (Caliper Life Sciences, Waltham, MA, United StatesUnited States). […] Tissues were incubated at 37 ℃ , 5% CO2 for 4 h, and absorbance at 490 nm was measured with a Tecan Spark Microplate reader.

Data set [2] concerns MDA-MB-231BR tumor bearing brain slices. The data set can be described thus: Ex vivo tumor-brain slice model with irradiation. More on the design: species or system nu/nu mice. The settings on record: 6 days. As to the method: as §1
The next data set concerns MDR1 (P-gp). The data set can be described thus: Bi-directional permeability across MDR1-MDCK cell monolayer (BBB assay). In kind it is in vitro ADME, canine. The settings on record: dog, MDR1-MDCK I monolayer. From the text: (§2) This assay provides the apparent permeability coefficient (Papp), efflux ratio, and % recovery to assess compound permeation.
Another data set concerns MDR1-MDCK cells. The description is as above. The data set is classed as in vitro ADME, canine. The settings on record: MDR1-MDCK BBB assay.
From the text: as §2

The nature of data set [3]: BBB permeability in vivo (LC-MS, brain over blood). More on the design: species or system BalbC mice. The note with it: mice, 50 mg/kg intraperitoneal, 30 min (AD-5584) or 1 h (AD-8007, VY-3-135). As to the method:
Human ACSS2 inhibitors were prepared in 10 mg/mL saline solution. BalbC 4–6 week-old mice were weighed and injected with 50 mg/kg or 100 mg/kg of drug saline solution via intraperitoneal injection. After 30 min or 60 min, mice treated with AD-5584 or AD-8007 and VY-3-135 were placed in isoflurane, and blood was extracted and perfused via intracardiac injection. Following perfusion, mice were decapitated, and their brains were rapidly removed into ice-cold PBS. For analysis of blood samples, 200 µL of blood was transferred and allowed to clot for 15 min at room temperature. Samples were precipitated at 16000xg for 1 min, and 50 µL of serum was transferred. To serum, 200 µL of methanol was added, and samples were centrifuged at 16000 g for 5 min. The supernatant was analyzed by LCMS. For analysis of brain samples, brains were homogenized via bead beating using four 2.3 mm stainless steel beads in 1 mL of MeOH and 0.5 mL of H2O. After centrifugation for 15 min at 3000xg, the supernatant was analyzed by LCMS. LCMS was performed on an Acquity I-Class UPLC system coupled to a Synapt G2Si HDMS mass spectrometer in positive ion mode with a heated electrospray ionization (ESI) source in a Z-spray configuration. […] Data was analyzed using Waters MassLynx and Waters Unifi. Calibration curves of authentic standards were used for quantification.

The nature of data set [4]: Human liver microsome stability. The note with it: human, liver microsomes. (In general: Microsomes from liver hold many membrane-bound enzymes, among them those of drug oxidation.)

Each structure is given as a SMILES string.

As usually defined, the Papp A→B is the apparent permeability from the apical to the basolateral side of a cell layer. A high value points to ready permeation. Broadly, the Papp B→A is how fast a substance crosses the layer from the basolateral side. One may read the CLint scaled as the rate of metabolic loss divided by the concentration. Higher therefore signals faster metabolism. What is called microsomal CLint is the rate of metabolic loss divided by the concentration. Low values mean greater metabolic stability, high ones faster metabolism. As a reminder, the half-life is the time needed for the level to fall by half in the phase considered. As to `N[C@H](C(=O)N1CCCC(c2ccccc2)(c2ccccc2)C1)C1CC1` [AD-8007], the “protein levels of FASN” value with FASN is reported as “reduced protein levels of FASN”. The “cell viability of brain slices without tumor” value in data set [1] is given as “did not alter cell viability”. Besides, in data set [2] (20 μM plus one dose of 6 Gy), the “preformed BCBM tumors ex vivo, combination with radiation” value is reported as “significantly reduced preformed BCBM tumors”. Besides, the “BCBM cell growth ex vivo, drug alone” value in data set [2] (suboptimal dose 20 µM, no irradiation) is “little effect on BCBM cell growth”. The compound also came in with a Papp A→B in the data set with MDR1 (P-gp) (A to B) of 28.1 nm/s. For the same compound, the basolateral-to-apical permeability (Papp B→A) in the data set with MDR1 (P-gp) (B to A) was determined as 252 nm/s. Further, in the data set on MDR1-MDCK cells, the “efflux ratio (in words)” value is reported as “low efflux ratio” and the “permeability (in words)” value is given as “moderate permeability”. Also, in data set [3], the “level of drug in the brain over blood” value is given as “detected at significantly higher levels in the brain compared to VY-3-135”. In data set [4], this compound gave an intrinsic metabolic clearance (CLint scaled) of less than 0.516 L/h/kg and an intrinsic clearance (microsomal CLint) of less than 9.6 µL/min/mg. The compound further had a half-life in data set [4] (Human Liver Microsome Stability T1/2, human liver microsomes) greater than 2.42 h.

The record behind these values is article PMC11137182, “Selective and brain-penetrant ACSS2 inhibitors target breast cancer brain metastatic cells” (Frontiers in Pharmacology, 2024).
